Consider 15 molecules from patent US20200155609A1, “COMPOSITIONS AND METHODS OF MAKING EXPANDED HEMATOPOIETIC STEM CELLS USING PTEN INHIBITORS” (Transfusion Health LLC, priority 2017, published 2020).

The test system of assay [1] is CD34+ cells isolated from donor non-mobilized peripheral blood (CD133+ and CD90+ cells). The experiment in a line: Relative expansive effect of SF1670 derivatives, fold change days 2 to 7, non-mobilized peripheral blood CD34+ cells (Example 21). To be noted: fold change days 2 to 7 normalized to basic and +SF (500 nM SF1670) controls. The class given is cell-based, human. The procedure:
CD34+ cells were isolated from donor peripheral blood as described in Example 20. Isolated CD34+ cells were incubated in an in vitro culture media of Alpha MEM without phenol red, 10% (v/v) heat inactivated fetal bovine serum (FBS). When testing the substituted derivatives of 9,10-dihydrophenathrene and phenanthrene (+Derivative conditions), two internal controls were used: a positive control (+SF conditions) and a baseline control (i.e, basic conditions (“cytokines only”)). The media components and concentrations used for the compounds tested are described in Table 6. The culture also included an antibiotic solution that includes penicillin, streptomycin, and amphotericin B to avoid contamination. Controls were included because the amount of expansion in samples obtained varies from individual to individual.
(§1) Cultures were incubated at 3% oxygen (controlled by nitrogen) and 5% CO2.
Small molecule components were added separately and fresh each time the media needs to be refreshed. Cytokines can be stored together. Media renewal should occur at least every few days.
On the days indicated one-half of the volume of the cell culture was removed for data analysis (flow cytometry using a BD FACS ARIA II). The culture volume was replenished with fresh media according to the conditions tested. The data reported accounts for the dilution factor introduced in this procedure.
Separate experiments were performed for each compound tested (Compound 1.001-1.012).
Table 7, below, summarizes the relative expansive effect of Compound 1.001 to 1.012 (sample compounds) at the indicated concentration. The data in Table 7 is reported as the relative expansive effect. The relative expansive effect is a normalized value of the fold changes shown in each of the figures. It is calculated as shown below: […]

The test system is the same in assay [2]. Put plainly: Relative expansive effect (relative cell number) of SF1670 derivatives, non-mobilized peripheral blood CD34+ cells, cytokines with IL-6 (Example 22). The class given is cell-based, human. The procedure: CD34+ cells were isolated from donor peripheral blood as described in Example 20. Isolated CD34+ cells were incubated in an in vitro culture media of Alpha MEM without phenol red, 10% (v/v) heat inactivated fetal bovine serum (FBS). When testing the substituted derivatives of 9,10-dihydrophenathrene (+Derivative conditions), two internal controls were used: a positive control (+SF conditions) and a baseline control (i.e, basic conditions (“cytokines only”)). The media components and concentrations used for the compounds tested are described in Table 8. The culture also included an antibiotic solution that includes penicillin, streptomycin, and amphotericin B to avoid contamination. Controls were included because the amount of expansion in samples obtained varies from individual to individual.
as §1
After the indicated number of days one-half of the volume of the cell culture was removed for data analysis (flow cytometry using a BD FACS ARIA II). The culture volume was replenished with fresh media according to the conditions tested.
Separate experiments were performed for each compound tested (Compound 1.014-1.016).
Table 9, below, summarizes the relative expansive effect of Compound 1.014 to 1.016 (sample compounds) at the indicated concentration. The data in Table 9 is reported as the relative cell number. The relative cell number is the normalized value of cell counts after the indicated number of days in culture. It is calculated as shown below: […]

[3] abbreviates: 7 days in culture, 1 μM sample compound.
The mark [4] stands for this setting: 7 days in culture, 2 μM sample compound.
[5] abbreviates: 5 days in culture, 0.25 μM sample compound.

As to `CC(C)(C)NC(=O)c1ccc2c(c1)C(=O)C(=O)c1ccccc1-2` [Compound 1.001, N-(tert-butyl)-9,10-dioxo-9,10-dihydrophenanthrene-2-carboxamide], in assay [1] (0.5 μM sample compound), the “CD90 effect (relative expansive effect of CD90+ cells)” value was “++ (0.2 ≤ x < 0.55)” and the “CD133 effect (relative expansive effect of CD133+ cells)” value is recorded as “+ (x < 0.2)”.
In the case of `CC(C)(C)C(=O)CNc1ccc2c(c1)C(=O)C(=O)c1ccccc1-2` [Compound 1.002, 2-((3,3-dimethyl-2-oxobutyl)amino)phenanthrene-9,10-dione], in assay [1] (1 μM sample compound), the “CD90 effect (relative expansive effect of CD90+ cells)” value was “++ (0.2 ≤ x < 0.55)” and the “CD133 effect (relative expansive effect of CD133+ cells)” value is “+ (x < 0.2)”.
For `Nc1ccc2c(c1)C(=O)C(=O)c1cc(NC(=O)CC(=O)O)ccc1-2` [Compound 1.003, 3-((7-amino-9,10-dioxo-9,10-dihydrophenanthren-2-yl)amino)-3-oxopropanoic acid], in assay [1] (0.125 μM sample compound), the “CD90 effect (relative expansive effect of CD90+ cells)” value is on record as “++ (0.2 ≤ x < 0.55)” and the “CD133 effect (relative expansive effect of CD133+ cells)” value is recorded as “+ (x < 0.2)”.
The matching figures for `CC(C)(C)CC(=O)Nc1ccc2c(c1)C(=O)C(=O)c1ccccc1-2` [Compound 1.004, N-(9,10-dioxo-9,10-dihydrophenanthren-2-yl)-3,3-dimethylbutanamide]: “++ (0.2 ≤ x < 0.55)” and “+ (x < 0.2)”.
As for `CCCCCCCCCC(=O)Nc1ccc2c(c1)C(=O)C(=O)c1ccccc1-2` [Compound 1.005, N-(9,10-dioxo-9,10-dihydrophenanthren-2-yl)decanamide], in assay [1] (2 μM sample compound), the “CD90 effect (relative expansive effect of CD90+ cells)” value is “++ (0.2 ≤ x < 0.55)” and the “CD133 effect (relative expansive effect of CD133+ cells)” value is on record as “+ (x < 0.2)”.
`CC(=O)Nc1ccc2c(c1)C(=O)C(=O)c1ccccc1-2` [Compound 1.006, N-(9,10-dioxo-9,10-dihydrophenanthren-2-yl)acetamide]: in assay [1] (0.5 μM sample compound), the “CD90 effect (relative expansive effect of CD90+ cells)” value is given as “++ (0.2 ≤ x < 0.55)” and the “CD133 effect (relative expansive effect of CD133+ cells)” value was “+ (x < 0.2)”.
For the molecule `CC(C)(C)C(=O)Nc1ccc2c(c1)C(=O)C(=O)c1cc(N)ccc1-2` [Compound 1.007, N-(7-amino-9,10-dioxo-9,10-dihydrophenanthren-2-yl)pivalamide], in assay [1] (1 μM sample compound), the “CD90 effect (relative expansive effect of CD90+ cells)” value is given as “++ (0.2 ≤ x < 0.55)” and the “CD133 effect (relative expansive effect of CD133+ cells)” value is reported as “++ (0.2 ≤ x < 0.55)”.
With `CCC(C)(C)C(=O)Nc1ccc2c(c1)C(=O)C(=O)c1ccccc1-2` [Compound 1.008, N-(9,10-dioxo-9,10-dihydrophenanthren-2-yl)-2,2-dimethylbutanamide], in assay [1] (1 μM sample compound), the “CD90 effect (relative expansive effect of CD90+ cells)” value is “++ (0.2 ≤ x < 0.55)” and the “CD133 effect (relative expansive effect of CD133+ cells)” value is “++ (0.2 ≤ x < 0.55)”.
For the molecule `O=C1C(=O)c2cc(NC(=O)C(Cl)(Cl)Cl)ccc2-c2ccccc21` [Compound 1.009, 2,2,2-trichloro-N-(9,10-dioxo-9,10-dihydrophenanthren-2-yl)acetamide], in assay [1] (0.5 μM sample compound), the “CD90 effect (relative expansive effect of CD90+ cells)” value is “+++ (0.55 ≤ x < 0.9)” and the “CD133 effect (relative expansive effect of CD133+ cells)” value is recorded as “++ (0.2 ≤ x < 0.55)”.
Consider `CCCC(C)(C)C(=O)Nc1ccc2c(c1)C(=O)C(=O)c1ccccc1-2` [Compound 1.010, N-(9,10-dioxo-9,10-dihydrophenanthren-2-yl)-2,2-dimethylpentanamide], for which, in assay [1] (0.125 μM sample compound), the “CD90 effect (relative expansive effect of CD90+ cells)” value is “+++ (0.55 ≤ x < 0.9)” and the “CD133 effect (relative expansive effect of CD133+ cells)” value is listed as “+ (x < 0.2)”.
Take `O=C1C(=O)c2ccc(NC(=O)C(Cl)(Cl)Cl)cc2-c2ccccc21` [Compound 1.011, 2,2,2-trichloro-N-(9,10-dioxo-9,10-dihydrophenanthren-3-yl)acetamide]: in assay [1] (0.25 μM sample compound), the “CD90 effect (relative expansive effect of CD90+ cells)” value is recorded as “++++ (0.9 ≤ x < 1.25)” and the “CD133 effect (relative expansive effect of CD133+ cells)” value is given as “++ (0.2 ≤ x < 0.55)”.
Turning to `CC(=O)Oc1c(OC(C)=O)c2cc(NC(=O)C(C)(C)C)ccc2c2ccccc12` [Compound 1.012, 2-pivalamidophenanthrene-9,10-diyl Diacetate], in assay [1] (0.5 μM sample compound), the “CD90 effect (relative expansive effect of CD90+ cells)” value is “+++++ (1.25 ≤ x)” and the “CD133 effect (relative expansive effect of CD133+ cells)” value is listed as “++++ (0.9 ≤ x < 1.25)”.
On to `COCCOc1c(O)c2cc(NC(=O)C(C)(C)C)ccc2c2ccccc12` [Compound 1.014, N-(10-hydroxy-9-(2-methoxyethoxy)phenanthren-2-yl)pivalamide], for which, in assay [2] (setting [3]), the “CD90 effect (relative expansive effect, relative cell number)” value is listed as “++ (0.2 ≤ x < 0.55)” and the “CD133 effect (relative expansive effect, relative cell number)” value is given as “++ (0.2 ≤ x < 0.55)”.
As for `O=C(COCc1ccccc1)Nc1ccc2c(c1)C(=O)C(=O)c1ccccc1-2` [Compound 1.015, 2-(benzyloxy)-N-(9,10-dioxo-9,10-dihydrophenanthren-2-yl)acetamide], in assay [2] (setting [4]), the “CD90 effect (relative expansive effect, relative cell number)” value is listed as “+++++ (1.25 ≤ x)” and the “CD133 effect (relative expansive effect, relative cell number)” value was “+++ (0.55 ≤ x < 0.9)”.
On to `CC(C)(C)C(=O)Nc1ccc2c(c1)C(=O)C(=NO)c1ccccc1-2` [Compound 1.016, N-(9-(hydroxyimino)-10-oxo-9,10-dihydrophenanthren-2-yl)pivalamide], for which, in assay [2] (setting [5]), the “CD90 effect (relative expansive effect, relative cell number)” value is “++ (0.2 ≤ x < 0.55)” and the “CD133 effect (relative expansive effect, relative cell number)” value is on record as “++ (0.2 ≤ x < 0.55)”.
